Consider 6 compounds from patent US20250034200A1, “Prodrugs of Neurosteroid Analogs and Uses Thereof” (priority 2021, published 2025).

Where a name gives a salt, the structure may show the parent alone. A value given as a limit tells only on which side of the number the result lay.

A short description of this data set: Aqueous stability assay (HPLC, pseudo first-order half-life). Type of data set: physicochemical. As to conditions: DPBS pH 7.0-7.3, 1 mg/mL, room temperature; for half-life at 1 mg/mL / half-life: buffer, read-out: PBS t1/2 (converted). On the procedure:
Aqueous stability experiments were performed on an Agilent 1100 HPLC equipped with an Agilent 1200 autosampler. HPLC grade solvents were exclusively used during analysis, with acetonitrile being purchased from Sigma Aldrich, and water and formic acid provided by Fisher Scientific. […]
[…] All mixtures were then sonicated for 5 min or stirred until complete dissolution was achieved. Any precipitate observed in sample solutions was filtered with a PTFE syringe filter prior to analysis. Immediately after sample preparation, injection by the HPLC autosampler was performed, which was recorded as the initial time point (t=0 min). Samples were then kept in the autosampler at room temperature and injected at designated intervals without additional filtration or sample modification. Next, the area of the parent peak in each chromatogram was determined by automated integration in the Agilent ChemStation software. Pseudo first-order half-lives were then ascertained by calculating the percent of the parent compound remaining after each time point. Plots of time (x-axis) vs. the natural logarithm of percent parent remaining (y-axis) were subsequently constructed to determine the slope. Finally, the aqueous stability was evaluated using the following equation:
The HPLC conditions were as follows: injection volume, 1 μL; column temperature: 40° C.; detector: 254 nm; stationary phase: Zorbax Eclipse XDB-C18 (4.6×150 mm, 5 μm); flow rate: 1 mL/min; mobile phase: 80-95% acetonitrile in H2O (0.1% formic acid).

For `C/C(=N\OC(=O)OCCN)[C@H]1CC[C@H]2[C@@H]3CCC4=CC(=O)CC[C@]4(C)[C@H]3CC[C@]12C` [32f, (8S,9S,10R,13S,14S,17S)-17-((E)-1-((((2-aminoethoxy)carbonyl)oxy)imino)ethyl)-10,13-dimethyl-1,2,6,7,8,9,10,11,12,13,14,15,16,17-tetradecahydro-3H-cyclopenta[a]phenanthren-3-one hydrochloride], the half-life at 1 mg/mL is 0.00458 ± 0.000417 days.

Turning to `C/C(=N\OC(=O)OC[C@@H]1CCCN1)[C@H]1CCC2[C@@H]3CCC4=CC(=O)CC[C@]4(C)[C@H]3CC[C@@]21C.Cl` (stereo partly drawn) [32n, (8S,9S,10R,13S,17S)-10,13-dimethyl-17-((E)-1-((((((S)-pyrrolidin-2-yl)methoxy)carbonyl)oxy)imino)ethyl)-1,2,6,7,8,9,10,11,12,13,14,15,16,17-tetradecahydro-3H-cyclopenta[a]phenanthren-3-one hydrochloride], the half-life is 0.09 ± 0.01 h.

For the compound `CNCCN(CCC(=O)O)C(=O)O/N=C(\C)[C@H]1CC[C@H]2[C@@H]3CCC4=CC(=O)CC[C@]4(C)[C@H]3CC[C@]12C.O=C(O)C(F)(F)F` [53h, 3-((((((E)-1-((8S,9S,10R,13S,14S,17S)-10,13-dimethyl-3-oxo-2,3,6,7,8,9,10,11,12,13,14,15,16,17-tetradecahydro-1H-cyclopenta[a]phenanthren-17-yl)ethylidene)amino)oxy)carbonyl)(2-(methylamino)ethyl)amino) propanoic acid 2,2,2-trifluoroacetate], the half-life is greater than 24 h.

Turning to `C/C(=N\OC(=O)NCCCN)[C@H]1CC[C@H]2[C@@H]3CCC4=CC(=O)CC[C@]4(C)[C@H]3CC[C@]12C` [32e, (8S,9S,10R,13S,14S,17S)-17-((E)-1-((((3-aminopropyl)carbamoyl)oxy)imino)ethyl)-10,13-dimethyl-1,2,6,7,8,9,10,11,12,13,14,15,16,17-tetradecahydro-3H-cyclopenta[a]phenanthren-3-one hydrochloride], the half-life at 1 mg/mL is 120 days. Moreover, the “PBS t1/2” value (d (days)) came to 120 days.

For `CNCCN(CC(=O)O)C(=O)O/N=C(\C)[C@H]1CC[C@H]2[C@@H]3CCC4=CC(=O)CC[C@]4(C)[C@H]3CC[C@]12C.O=C(O)C(F)(F)F` [53g, N-(((((E)-1-((8S,9S,10R,13S,14S,17S)-10,13-dimethyl-3-oxo-2,3,6,7,8,9,10,11,12,13,14,15,16,17-tetradecahydro-1H-cyclopenta[a]phenanthren-17-yl)ethylidene)amino)oxy)carbonyl)-N-(2-(methylamino)ethyl)glycine 2,2,2-trifluoroacetate], the half-life was greater than 24 h.

As to `C/C(=N\OC(=O)N(C)C[C@@H]1C[C@@H](O)CN1)[C@H]1CC[C@H]2[C@@H]3CCC4=CC(=O)CC[C@]4(C)[C@H]3CC[C@]12C.O=C(O)C(F)(F)F` [32m, (8S,9S,10R,13S,14S,17S)-17-((E)-1-((((((2S,4R)-4-hydroxypyrrolidin-2-yl)methyl)(methyl)carbamoyl)oxy)imino)ethyl)-10,13-dimethyl-1,2,6,7,8,9,10,11,12,13,14,15,16,17-tetradecahydro-3H-cyclopenta[a]phenanthren-3-one 2,2,2-trifluoroacetate], the half-life is 1.3 h.
